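Exposure lasted 48 hours, with cells grown in 96-well plates and compounds tested at five concentrations. GI50 marks 50% less growth. TGI is the concentration that stops growth completely.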
Key:
Experiment in all cases: inhibition of tumour cell growth, NCI panel, 48 h
COLO 205 colon = test system: COLO 205 colon
HOP-92 NSCLC = test system: HOP-92 NSCLC
MDA-N = test system: MDA-N
NCI/ADR-RES ovarian = test system: NCI/ADR-RES ovarian
PC-3 prostate = test system: PC-3 prostate
RXF 393 renal = test system: RXF 393 renal
SF-295 CNS = test system: SF-295 CNS
SN12C renal = test system: SN12C renal
A498 renal = test system: A498 renal
HL-60(TB) leukemia = test system: HL-60(TB) leukemia
HOP-62 NSCLC = test system: HOP-62 NSCLC

Row | SMILES | TGI (COLO 205 colon) [µM] | TGI (HOP-92 NSCLC) [µM] | TGI (MDA-N) [µM] | TGI (NCI/ADR-RES ovarian) [µM] | TGI (PC-3 prostate) [µM] | TGI (RXF 393 renal) [µM] | TGI (SF-295 CNS) [µM] | TGI (SN12C renal) [µM] | TGI (A498 renal) [µM] | TGI (HL-60(TB) leukemia) [µM] | TGI (HOP-62 NSCLC) [µM] | GI50 (COLO 205 colon) [µM] | GI50 (HL-60(TB) leukemia) [µM] | GI50 (HOP-62 NSCLC) [µM] | GI50 (HOP-92 NSCLC) [µM] | GI50 (NCI/ADR-RES ovarian) [µM] | GI50 (PC-3 prostate) [µM] | GI50 (RXF 393 renal) [µM] | GI50 (SF-295 CNS) [µM] | GI50 (SN12C renal) [µM]
1 | CC(NC(=O)Cc1ccccc1)NC(=O)C(C)C(=O)Nc1ccccc1 (stereo not given) | > 100 | > 100 | > 100 | > 100 | > 100 | > 100 | > 100 | > 100 |  |  |  |  |  |  |  |  |  |  |  | 
2 | COc1ccc(C2c3cn[nH]c3CC3CCCCC32)cc1 (stereo not given) |  |  | 27.9 |  | 29.8 |  |  | 33.2 | 23 | 61.2 | 36.8 |  |  |  |  |  |  |  |  | 
3 | COC(=O)C(=Cc1cc(OC)c(OC)c(OC)c1-c1cc2c(cc1C1(C)OCCS1)OCO2)C(=O)OC (stereo not given) | > 100 | 37.6 |  |  |  | > 100 | > 100 | > 100 |  | > 100 | > 100 |  |  |  |  |  |  |  |  | 
4 | CCCCCC#CCOC(=O)C(=[N+]=[N-])P(=O)(c1ccccc1)c1ccccc1 |  | > 10 | > 10 |  | > 10 | > 10 | > 10 | > 10 | > 10 | > 10 | > 10 |  |  |  |  |  |  |  |  | 
5 | COc1ccc(C(=O)/C=C/c2ccc(OCCCOc3ccc(/C=C/C(=O)c4ccc(OC)cc4)cc3)cc2)cc1 | > 100 |  | > 100 | > 100 | > 100 | > 100 | > 100 | > 100 |  | > 100 | > 100 |  |  |  |  |  |  |  |  | 
6 | CSc1nc(SC)c2c(C#N)[nH]nc2n1 | > 100 | > 100 |  |  |  | > 100 | > 100 | > 100 | > 100 |  | > 100 |  |  |  |  |  |  |  |  | 
7 | Nc1ncc(-c2ccc3ncnc(Nc4ccc(F)c(Cl)c4)c3c2)cn1 | 11.2 | 3.52 |  | 46.2 | 53.6 | 3.5 | 11 | 4.1 |  | 29.7 | 4.45 | 2.5 | 10.6 | 1.7 | 1.03 | 3.8 | 2.48 | 0.932 | 2.11 | 1.58
8 | CCCCCCCCCCCCCCCCNc1cccc2ccccc12 | > 100 |  |  |  |  | > 100 | > 100 | > 100 |  | > 100 | > 100 |  |  |  |  |  |  |  |  | 

— PubChem BioAssay (NCI)
